Here are results for one molecule from patent US10654845B2, “2-(het)aryl-substituted fused bicyclic heterocycle derivatives as pesticides” (BAYER CROPSCIENCE AKTIENGESELLSCHAFT, priority 2015, dated 2020).

Series [1] in a line: log P by HPLC on reversed-phase column (C18), EEC Directive 79/831 Annex V.A8. Particulars: pH 2.7. An excerpt:
Called log P (HCOOH) in the table.
Called log P (neutral) in the table.

The next series concerns Phaedon cochleariae. Nature of the series: Phaedon cochleariae spray test. Format: in vivo. Particulars: 500 g/ha, after 7 days, beetle larvae killed. In a few lines:
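Compound dissolved in acetone/dimethylformamide and diluted with water containing 1000 ppm alkylaryl polyglycol ether emulsifier to test concentrations, applied as a spray. Efficacy (% beetle larvae killed) assessed after 7 days.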

The test system of a further series is Boophilus microplus. Nature of the series: Boophilus microplus injection test. The format is in vivo. The note with it: 20 μg/animal, assessed after 7 days. Here is the method: Boophilus microplus-Injection Test
(§1) Solvent: dimethyl sulphoxide
To produce a suitable preparation of active compound, 10 mg of active compound are mixed with 0.5 ml of solvent and the concentrate is diluted with solvent to the desired concentration.
1 μl of the active compound solution is injected into the abdomen of 5 engorged adult female cattle ticks (Boophilus microplus). The animals are transferred into dishes and kept in a climate-controlled room.
Efficacy is assessed after 7 days by laying of fertile eggs. Eggs which are not visibly fertile are stored in a climate-controlled cabinet until the larvae hatch after about 42 days. An efficacy of 100% means that none of the ticks has laid any fertile eggs; 0% means that all the eggs are fertile.

For series [2], the system named is Ctenocephalides felis. Nature of the series: Ctenocephalides felis oral test. The format is in vivo. Particulars: 100 ppm, after 2 days. How it is done: Ctenocephalides felis-Oral Test
as §1
To produce a suitable preparation of active compound, 10 mg of active compound are mixed with 0.5 ml of dimethyl sulphoxide. Dilution with citrated cattle blood gives the desired concentration.
About 20 unfed adult cat fleas (Ctenocephalides felis) are placed into a chamber which is closed at the top and bottom with gauze. A metal cylinder whose bottom end is closed with parafilm is placed onto the chamber. The cylinder contains the blood/active compound preparation, which can be imbibed by the fleas through the parafilm membrane.
After 2 days, the kill in % is determined. 100% means that all of the fleas have been killed; 0% means that none of the fleas have been killed.

Another series relates to Lucilia cuprina. Nature of the series: Lucilia cuprina test. Format: in vivo. Particulars: 100 ppm, after 2 days, L1 larvae. Here is the method:
as §1
(§2) To produce a suitable preparation of active compound, 10 mg of active compound are mixed with 0.5 ml of dimethyl sulphoxide, and the concentrate is diluted with water to the desired concentration.
About 20 L1 larvae of the Australian sheep blowfly (Lucilia cuprina) are transferred into a test vessel containing minced horsemeat and the active compound preparation of the desired concentration.
After 2 days, the kill in % is determined. 100% means that all the larvae have been killed; 0% means that no larvae have been killed.

The next series deals with Musca domestica. In words: Musca domestica test. Format: in vivo. Particulars: 100 ppm, after 2 days, adult houseflies. Here is the method: as §1, §2
Vessels containing a sponge treated with sugar solution and the active compound preparation of the desired concentration are populated with 10 adult houseflies (Musca domestica).
After 2 days, the kill in % is determined. 100% means that all of the flies have been killed; 0% means that none of the flies have been killed.

In another series the test system is Myzus persicae. Nature of the series: Myzus persicae spray test (bell pepper plants). Particulars: 100 ppm, after 6 days. The format is in vivo. How it is done: Myzus persicae Spray Test
Solvent: 7 parts by weight of dimethylformamide
Emulsifier: alkylaryl polyglycol ether
To produce a suitable preparation of active compound, 1 part by weight of active compound is dissolved using the stated parts by weight of solvent and made up with water containing an emulsifier concentration of 1000 ppm until the desired concentration is attained. To produce further test concentrations, the preparation is diluted with emulsifier-containing water. If the addition of ammonium salts or/and penetrants is required, these are each added in a concentration of 1000 ppm to the formulation solution.
Bell pepper plants (Capsicum annuum) severely infested with the green peach aphid (Myzus persicae) are treated by spraying with the active compound preparation in the desired concentration.
After 6 days, the kill in % is determined. 100% means that all of the aphids have been killed; 0% means that none of the aphids have been killed.

The test system of series [3] is Ctenocephalides felis. In words: Ctenocephalides felis in vitro contact tests with adult cat fleas. Format: in vivo. The note with it: 5 μg/cm^2 (500 g/ha), after 48 h. How it is done: Ctenocephalides felis—In Vitro Contact Tests with Adult Cat Fleas
For the coating of the test tubes, 9 mg of active compound are first dissolved in 1 ml of acetone p.a. and then diluted to the desired concentration with acetone p.a. 250 μl of the solution are distributed homogeneously on the inner walls and the base of a 25 ml test tube by turning and rocking on an orbital shaker (rocking rotation at 30 rpm for 2 h). With 900 ppm active compound solution and internal surface 44.7 cm^2, given homogeneous distribution, an area-based dose of 5 μg/cm^2 is achieved.
After the solvent has evaporated off, the tubes are populated with 5-10 adult cat fleas (Ctenocephalides felis), sealed with a perforated plastic lid and incubated in a horizontal position at room temperature and ambient humidity. After 48 h, efficacy is determined. To this end, the test tubes are stood upright and the fleas are knocked to the base of the tube. Fleas which remain motionless at the base or move in an uncoordinated manner are considered to be dead or moribund.
100% efficacy means that all the fleas were dead or moribund. 0% efficacy means that no fleas were harmed.

In series [1], `CCS(=O)(=O)c1ccc(NC(=O)C2CC2)nc1-c1nc2cc(C(F)(F)F)ncc2n1C` [Example 22] displayed a logP-acidic of 2.43. In addition, the efficacy in % in the series on Phaedon cochleariae amounted to 100%. Further, the “efficacy (laying of fertile eggs)” value in the series on Boophilus microplus worked out at 80%. For the same molecule, the kill in % with Ctenocephalides felis [2] worked out at 100%; with Lucilia cuprina, 90%; in the series with Musca domestica, 100%; in the series on Myzus persicae, 100%. Moreover, the “efficacy (dead or moribund fleas)” value in the series on Ctenocephalides felis [3] was found to be 100%.
